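Dose response: 5 concentrations. Exposure: 48 h. Format: 96-well plates. Endpoint: linear interpolation; highest concentration if not reached. Here, GI50 denotes the concentration required for 50% inhibition of growth.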 Calls of active or inactive are those of the source. No stated cut-off is given here; in the data, active = GI50 up to about 1.1 µM and inactive = higher.
Columns and labels:
Assay in all cases: growth of human tumour cells (NCI), 48 h
786-0 = tested on: 786-0
MDA-MB-231 = tested on: MDA-MB-231
CCRF-CEM = tested on: CCRF-CEM
HL-60 = tested on: HL-60
IGROV-1 = tested on: IGROV-1
OVCAR-4 = tested on: OVCAR-4
SK-MEL-5 = tested on: SK-MEL-5
TK-10 = tested on: TK-10
UACC-257 = tested on: UACC-257
MOLT-4 = tested on: MOLT-4
COLO 205 = tested on: COLO 205
Hs-578T = tested on: Hs-578T
HT-29 = tested on: HT-29
NCI-H23 = tested on: NCI-H23
KM12 = tested on: KM12
HCC 2998 = tested on: HCC 2998
NCI-H460 = tested on: NCI-H460
PC-3 = tested on: PC-3
Malme-3M = tested on: Malme-3M
SF-295 = tested on: SF-295
UACC-62 = tested on: UACC-62
A549 = tested on: A549
BT-549 = tested on: BT-549
HOP-62 = tested on: HOP-62
HCT-15 = tested on: HCT-15
M14 = tested on: M14
HCT-116 = tested on: HCT-116
UO-31 = tested on: UO-31
EKVX = tested on: EKVX
SF-539 = tested on: SF-539
NCI/ADR-RES = tested on: NCI/ADR-RES
ACHN = tested on: ACHN
SK-MEL-2 = tested on: SK-MEL-2
MCF7 = tested on: MCF7
K562 = tested on: K562
RXF 393 = tested on: RXF 393
SNB-19 = tested on: SNB-19
SK-MEL-28 = tested on: SK-MEL-28
U-251 = tested on: U-251
HOP-92 = tested on: HOP-92
OVCAR-8 = tested on: OVCAR-8
MDA-MB-435 = tested on: MDA-MB-435
SK-OV-3 = tested on: SK-OV-3
SF-268 = tested on: SF-268
OVCAR-3 = tested on: OVCAR-3
SR = tested on: SR
CAKI-1 = tested on: CAKI-1
NCI-H226 = tested on: NCI-H226
NCI-H522 = tested on: NCI-H522
RPMI-8226 = tested on: RPMI-8226
SNB-75 = tested on: SNB-75
OVCAR-5 = tested on: OVCAR-5
SW-620 = tested on: SW-620
SN12C = tested on: SN12C
T47D = tested on: T47D
A498 = tested on: A498
DU-145 = tested on: DU-145
LOX IMVI = tested on: LOX IMVI

How did the GI50 (786-0) turn out when Cc1cccc(NS(=O)(=O)c2ccc(/N=N/c3c(O)c(C(=O)O)cc4ccccc34)cc2)n1 was run?
Its GI50 is > 100000 nM (inactive).

What about the GI50 (MDA-MB-231) of the same compound?
Its GI50 is > 100000 nM (inactive).

What about the GI50 (CCRF-CEM) of the same compound?
Its GI50 is > 100000 nM (inactive).

What about the GI50 (HL-60) of the same compound?
The GI50 was > 100000 nM (inactive).

What about the GI50 (IGROV-1) of the same compound?
Its GI50 is > 100000 nM (inactive).

And the GI50 (OVCAR-4)?
The GI50 was > 100000 nM (inactive).

And the GI50 (SK-MEL-5)?
Its GI50 is > 100000 nM (inactive).

What about the GI50 (TK-10) of the same compound?
The GI50 was > 100000 nM (inactive).

And the GI50 (UACC-257)?
Its GI50 is > 100000 nM (inactive).

What about the GI50 (MOLT-4) of the same compound?
Its GI50 is > 100000 nM (inactive).

And the GI50 (COLO 205)?
Its GI50 is > 100000 nM (inactive).

What about the GI50 (Hs-578T) of the same compound?
The GI50 was > 100000 nM (inactive).

And the GI50 (HT-29)?
The GI50 was > 100000 nM (inactive).

And the GI50 (NCI-H23)?
Its GI50 is > 100000 nM (inactive).

What about the GI50 (KM12) of the same compound?
The GI50 was > 100000 nM (inactive).

And the GI50 (HCC 2998)?
The GI50 was > 100000 nM (inactive).

What about the GI50 (NCI-H460) of the same compound?
The GI50 was > 100000 nM (inactive).

And the GI50 (PC-3)?
Its GI50 is > 100000 nM (inactive).

What about the GI50 (Malme-3M) of the same compound?
The GI50 was > 100000 nM (inactive).

What about the GI50 (SF-295) of the same compound?
The GI50 was > 100000 nM (inactive).

And the GI50 (UACC-62)?
Its GI50 is > 100000 nM (inactive).

What about the GI50 (A549) of the same compound?
Its GI50 is > 100000 nM (inactive).

What about the GI50 (BT-549) of the same compound?
Its GI50 is > 100000 nM (inactive).

And the GI50 (HOP-62)?
The GI50 was > 100000 nM (inactive).

And the GI50 (HCT-15)?
The GI50 was > 100000 nM.

What about the GI50 (M14) of the same compound?
Its GI50 is > 100000 nM (inactive).

What about the GI50 (HCT-116) of the same compound?
Its GI50 is > 100000 nM (inactive).

What about the GI50 (UO-31) of the same compound?
The GI50 was > 100000 nM (inactive).

What about the GI50 (EKVX) of the same compound?
Its GI50 is > 100000 nM (inactive).

And the GI50 (SF-539)?
Its GI50 is > 100000 nM (inactive).

What about the GI50 (NCI/ADR-RES) of the same compound?
Its GI50 is > 100000 nM (inactive).

What about the GI50 (ACHN) of the same compound?
The GI50 was > 100000 nM (inactive).

And the GI50 (SK-MEL-2)?
Its GI50 is > 100000 nM (inactive).

What about the GI50 (MCF7) of the same compound?
The GI50 was > 100000 nM (inactive).

What about the GI50 (K562) of the same compound?
Its GI50 is > 100000 nM (inactive).

What about the GI50 (RXF 393) of the same compound?
Its GI50 is > 100000 nM (inactive).

And the GI50 (SNB-19)?
The GI50 was > 100000 nM (inactive).

And the GI50 (SK-MEL-28)?
The GI50 was > 100000 nM (inactive).

And the GI50 (U-251)?
The GI50 was > 100000 nM (inactive).

And the GI50 (HOP-92)?
The GI50 was > 100000 nM (inactive).

What about the GI50 (OVCAR-8) of the same compound?
The GI50 was > 100000 nM (inactive).

What about the GI50 (MDA-MB-435) of the same compound?
The GI50 was > 100000 nM (inactive).

What about the GI50 (SK-OV-3) of the same compound?
The GI50 was > 100000 nM (inactive).

What about the GI50 (SF-268) of the same compound?
The GI50 was > 100000 nM (inactive).

What about the GI50 (OVCAR-3) of the same compound?
Its GI50 is > 100000 nM (inactive).

What about the GI50 (SR) of the same compound?
The GI50 was > 100000 nM (inactive).

What about the GI50 (CAKI-1) of the same compound?
The GI50 was > 100000 nM (inactive).

What about the GI50 (NCI-H226) of the same compound?
The GI50 was > 100000 nM (inactive).

What about the GI50 (NCI-H522) of the same compound?
Its GI50 is > 100000 nM (inactive).

What about the GI50 (RPMI-8226) of the same compound?
The GI50 was > 100000 nM (inactive).

What about the GI50 (SNB-75) of the same compound?
Its GI50 is > 100000 nM (inactive).

And the GI50 (OVCAR-5)?
The GI50 was > 100000 nM (inactive).

What about the GI50 (SW-620) of the same compound?
The GI50 was > 100000 nM (inactive).

How did the GI50 (786-0) turn out when O=C1C=CC(O)C2C1CC13SSC4(CC5C(=O)C=CC(O)C5N4C1=O)C(=O)N23 (stereo not given) was run?
The GI50 was 39.6 nM (active).

What about the GI50 (MDA-MB-231) of the same compound?
The GI50 was 281 nM (active).

What about the GI50 (CCRF-CEM) of the same compound?
The GI50 was < 10 nM (active).

And the GI50 (HL-60)?
Its GI50 is < 46.5 nM (active).

What about the GI50 (IGROV-1) of the same compound?
The GI50 was 1370 nM (inactive).

And the GI50 (OVCAR-4)?
Its GI50 is 476 nM (active).

What about the GI50 (SK-MEL-5) of the same compound?
Its GI50 is 412 nM (active).

What about the GI50 (TK-10) of the same compound?
Its GI50 is 485 nM (active).

What about the GI50 (UACC-257) of the same compound?
Its GI50 is 183 nM (active).

What about the GI50 (MOLT-4) of the same compound?
Its GI50 is 10.9 nM (active).

And the GI50 (COLO 205)?
The GI50 was 155 nM (active).

What about the GI50 (Hs-578T) of the same compound?
The GI50 was 500 nM (active).

And the GI50 (HT-29)?
The GI50 was 42.6 nM (active).

And the GI50 (NCI-H23)?
Its GI50 is 106 nM (active).

What about the GI50 (SN12C) of the same compound?
The GI50 was 60.1 nM (active).

And the GI50 (KM12)?
Its GI50 is 88.5 nM (active).

What about the GI50 (NCI-H460) of the same compound?
Its GI50 is 681 nM (active).

And the GI50 (PC-3)?
Its GI50 is 138 nM (active).

What about the GI50 (Malme-3M) of the same compound?
Its GI50 is 330 nM (active).

What about the GI50 (SF-295) of the same compound?
The GI50 was 1090 nM (active).

What about the GI50 (UACC-62) of the same compound?
Its GI50 is 208 nM (active).

What about the GI50 (T47D) of the same compound?
Its GI50 is 499 nM (active).

And the GI50 (A549)?
The GI50 was 2520 nM (inactive).

And the GI50 (BT-549)?
The GI50 was 1630 nM (inactive).

And the GI50 (HOP-62)?
Its GI50 is 324 nM (active).

What about the GI50 (HCT-15) of the same compound?
The GI50 was 140 nM.

What about the GI50 (M14) of the same compound?
The GI50 was 157 nM (active).

And the GI50 (HCT-116)?
Its GI50 is < 15.1 nM (active).

What about the GI50 (UO-31) of the same compound?
The GI50 was 272 nM (active).

What about the GI50 (EKVX) of the same compound?
Its GI50 is 726 nM (active).

What about the GI50 (SF-539) of the same compound?
The GI50 was 151 nM (active).

What about the GI50 (NCI/ADR-RES) of the same compound?
The GI50 was 54.5 nM (active).

And the GI50 (ACHN)?
Its GI50 is 74.5 nM (active).

What about the GI50 (SK-MEL-2) of the same compound?
The GI50 was 796 nM (active).

What about the GI50 (MCF7) of the same compound?
The GI50 was 1210 nM (inactive).

And the GI50 (K562)?
Its GI50 is 35.8 nM (active).

And the GI50 (RXF 393)?
The GI50 was 483 nM (active).

What about the GI50 (SNB-19) of the same compound?
The GI50 was 1360 nM (inactive).

What about the GI50 (SK-MEL-28) of the same compound?
Its GI50 is 302 nM (active).

What about the GI50 (A498) of the same compound?
The GI50 was 3200 nM (inactive).

And the GI50 (U-251)?
The GI50 was 234 nM (active).

And the GI50 (DU-145)?
Its GI50 is 354 nM (active).

What about the GI50 (HOP-92) of the same compound?
The GI50 was 96.6 nM (active).

What about the GI50 (OVCAR-8) of the same compound?
Its GI50 is 69.8 nM (active).

What about the GI50 (LOX IMVI) of the same compound?
Its GI50 is 57.9 nM (active).

What about the GI50 (MDA-MB-435) of the same compound?
The GI50 was 164 nM (active).

What about the GI50 (SK-OV-3) of the same compound?
Its GI50 is 2200 nM (inactive).

What about the GI50 (SF-268) of the same compound?
Its GI50 is 847 nM (active).

And the GI50 (OVCAR-3)?
The GI50 was 84.5 nM (active).

And the GI50 (SR)?
Its GI50 is < 10 nM (active).

And the GI50 (CAKI-1)?
Its GI50 is 155 nM (active).

And the GI50 (NCI-H226)?
Its GI50 is 308 nM (active).

And the GI50 (NCI-H522)?
The GI50 was 45.3 nM (active).

And the GI50 (RPMI-8226)?
The GI50 was < 10 nM (active).

And the GI50 (SNB-75)?
The GI50 was 1110 nM (active).

And the GI50 (OVCAR-5)?
The GI50 was 63.4 nM (active).

And the GI50 (SW-620)?
Its GI50 is 32.4 nM (active).

From ChEMBL document CHEMBL1201862, “PubChem BioAssay data set” (2004)
